Assay results published in US20230301300A1, “HERBICIDAL COMPOSITIONS” (SYNGENTA CROP PROTECTION AG, priority 2020, published 2023).

Columns and labels:
Assay in all cases: B2 Post-Emergence Efficacy - Test 2
Assay type in all cases: in vivo
Glycine max (GLXMA) = settings: 15 days after application; for Herbicidal activity GLXMA: 0-100 scale; for Herbicidal activity on a 0-100 scale, GLXMA: 0=no damage, 100=total kill
Summary of the method: (§1)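 A 0–100 damage rating taken 15 days after application. Plants: 12 days old at spraying, glasshouse-grown (16 h light, 65% humidity, day/night 24/18 or 20/16 °C), watered twice daily. Spray: aqueous IF50 formulation, 0.2% v/v Genapol X080.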

Galium aparine (GALAP) = settings: 15 days after application, 0-100 scale
Summary of the method: as §1

[1] = tested on: Panicum miliaceum (PANMI); settings: 15 days after application, 0=no damage, 100=total kill
Summary of the method: as §1

[2] = tested on: Alopecurus myosuroides (ALOMY); settings: 15 days after application, 0-100 scale
Summary of the method: as §1

Zea mays (ZEAMX) = settings: 15 days after application; for Herbicidal activity ZEAMX: 0-100 scale; for Herbicidal activity on a 0-100 scale, ZEAMX: 0=no damage, 100=total kill
Summary of the method: as §1

[3] = tested on: Euphorbia hetrophylla (EPHHL); settings: 15 days after application, 0-100 scale
Summary of the method: as §1

Orysa sativa (ORYSA) = settings: 15 days after application; for Herbicidal activity ORYSA: 0-100 scale; for Herbicidal activity on a 0-100 scale, ORYSA: 0=no damage, 100=total kill
Summary of the method: as §1

[4] = tested on: Digitaria sanguinalis (DIGSA); settings: 15 days after application, 0=no damage, 100=total kill
Summary of the method: as §1

Sida spinosa (SIDSP) = settings: 15 days after application, 0-100 scale
Summary of the method: as §1

Sorghum bicolour (SORVU) = settings: 15 days after application, 0=no damage, 100=total kill
Summary of the method: as §1

Eleisine indica (ELEIN) = settings: 15 days after application, 0=no damage, 100=total kill
Summary of the method: as §1

[5] = tested on: Xanthium strumarium (XANST); settings: 15 days after application, 0-100 scale
Summary of the method: as §1

Poa annua (POAAN) = settings: 15 days after application, 0-100 scale
Summary of the method: as §1

Setaria faberi (SETFA) = settings: 15 days after application, 0=no damage, 100=total kill
Summary of the method: as §1

Avena fatua (AVEFA) = settings: 15 days after application, 0-100 scale
Summary of the method: as §1

[6] = tested on: Brachiaria plantaginea (BRAPL); settings: 15 days after application, 0=no damage, 100=total kill
Summary of the method: as §1

Bidens pilosa (BIDPI) = settings: 15 days after application, 0-100 scale
Summary of the method: as §1

Cc1nn(C)c(=O)c(-c2c(F)ccc(Cl)c2CCc2ccc(C(F)(F)F)nc2)c1O [Compound 1.042, 4-[3-chloro-6-fluoro-2-[2-[6-(trifluoromethyl)-3-pyridyl]ethyl]phenyl]-5-hydroxy-2,6-dimethyl-pyridazin-3-one]
Herbicidal activity GLXMA (Glycine max (GLXMA); 15 g/Ha): 60
Herbicidal activity on a 0-100 scale, GLXMA (Glycine max (GLXMA); 15 g/Ha): 60
Herbicidal activity GLXMA (Glycine max (GLXMA); 30 g/Ha): 80
Herbicidal activity on a 0-100 scale, GLXMA (Glycine max (GLXMA); 30 g/Ha): 80
Herbicidal activity GLXMA (Glycine max (GLXMA); 60 g/Ha): 90
Herbicidal activity on a 0-100 scale, GLXMA (Glycine max (GLXMA); 60 g/Ha): 90
Herbicidal activity GLXMA (Glycine max (GLXMA); 125 g/Ha): 90
Herbicidal activity on a 0-100 scale, GLXMA (Glycine max (GLXMA); 125 g/Ha): 90
Herbicidal activity GLXMA (Glycine max (GLXMA); 250 g/Ha): 100
Herbicidal activity on a 0-100 scale, GLXMA (Glycine max (GLXMA); 250 g/Ha): 100
Herbicidal activity GLXMA (Glycine max (GLXMA); 500 g/Ha): 100
Herbicidal activity on a 0-100 scale, GLXMA (Glycine max (GLXMA); 500 g/Ha): 100
Herbicidal activity GALAP (Galium aparine (GALAP); 15 g/Ha): 10
Herbicidal activity GALAP (Galium aparine (GALAP); 30 g/Ha): 30
Herbicidal activity GALAP (Galium aparine (GALAP); 60 g/Ha): 60
Herbicidal activity GALAP (Galium aparine (GALAP); 125 g/Ha): 80
Herbicidal activity GALAP (Galium aparine (GALAP); 250 g/Ha): 80
Herbicidal activity GALAP (Galium aparine (GALAP); 500 g/Ha): 90
Herbicidal activity on a 0-100 scale, PANMI ([1]; 15 g/Ha): 10
Herbicidal activity on a 0-100 scale, PANMI ([1]; 30 g/Ha): 60
Herbicidal activity on a 0-100 scale, PANMI ([1]; 60 g/Ha): 80
Herbicidal activity on a 0-100 scale, PANMI ([1]; 125 g/Ha): 90
Herbicidal activity on a 0-100 scale, PANMI ([1]; 250 g/Ha): 100
Herbicidal activity on a 0-100 scale, PANMI ([1]; 500 g/Ha): 100
Herbicidal activity ALOMY ([2]; 15 g/Ha): 20
Herbicidal activity ALOMY ([2]; 30 g/Ha): 60
Herbicidal activity ALOMY ([2]; 60 g/Ha): 80
Herbicidal activity ALOMY ([2]; 125 g/Ha): 80
Herbicidal activity ALOMY ([2]; 250 g/Ha): 90
Herbicidal activity ALOMY ([2]; 500 g/Ha): 90
Herbicidal activity ZEAMX (Zea mays (ZEAMX); 15 g/Ha): 0
Herbicidal activity on a 0-100 scale, ZEAMX (Zea mays (ZEAMX); 15 g/Ha): 0
Herbicidal activity ZEAMX (Zea mays (ZEAMX); 30 g/Ha): 10
Herbicidal activity on a 0-100 scale, ZEAMX (Zea mays (ZEAMX); 30 g/Ha): 10
Herbicidal activity ZEAMX (Zea mays (ZEAMX); 60 g/Ha): 20
Herbicidal activity on a 0-100 scale, ZEAMX (Zea mays (ZEAMX); 60 g/Ha): 20
Herbicidal activity ZEAMX (Zea mays (ZEAMX); 125 g/Ha): 60
Herbicidal activity on a 0-100 scale, ZEAMX (Zea mays (ZEAMX); 125 g/Ha): 60
Herbicidal activity ZEAMX (Zea mays (ZEAMX); 250 g/Ha): 70
Herbicidal activity on a 0-100 scale, ZEAMX (Zea mays (ZEAMX); 250 g/Ha): 70
Herbicidal activity ZEAMX (Zea mays (ZEAMX); 500 g/Ha): 90
Herbicidal activity on a 0-100 scale, ZEAMX (Zea mays (ZEAMX); 500 g/Ha): 90
Herbicidal activity EPHHL ([3]; 15 g/Ha): 80
Herbicidal activity EPHHL ([3]; 30 g/Ha): 90
Herbicidal activity EPHHL ([3]; 60 g/Ha): 90
Herbicidal activity EPHHL ([3]; 125 g/Ha): 100
Herbicidal activity EPHHL ([3]; 250 g/Ha): 100
Herbicidal activity EPHHL ([3]; 500 g/Ha): 100
Herbicidal activity ORYSA (Orysa sativa (ORYSA); 15 g/Ha): 0
Herbicidal activity on a 0-100 scale, ORYSA (Orysa sativa (ORYSA); 15 g/Ha): 0
Herbicidal activity ORYSA (Orysa sativa (ORYSA); 30 g/Ha): 0
Herbicidal activity on a 0-100 scale, ORYSA (Orysa sativa (ORYSA); 30 g/Ha): 0
Herbicidal activity ORYSA (Orysa sativa (ORYSA); 60 g/Ha): 0
Herbicidal activity on a 0-100 scale, ORYSA (Orysa sativa (ORYSA); 60 g/Ha): 0
Herbicidal activity ORYSA (Orysa sativa (ORYSA); 125 g/Ha): 0
Herbicidal activity on a 0-100 scale, ORYSA (Orysa sativa (ORYSA); 125 g/Ha): 0
Herbicidal activity ORYSA (Orysa sativa (ORYSA); 250 g/Ha): 20
Herbicidal activity on a 0-100 scale, ORYSA (Orysa sativa (ORYSA); 250 g/Ha): 20
Herbicidal activity ORYSA (Orysa sativa (ORYSA); 500 g/Ha): 50
Herbicidal activity on a 0-100 scale, ORYSA (Orysa sativa (ORYSA); 500 g/Ha): 50
Herbicidal activity on a 0-100 scale, DIGSA ([4]; 15 g/Ha): 0
Herbicidal activity on a 0-100 scale, DIGSA ([4]; 30 g/Ha): 60
Herbicidal activity on a 0-100 scale, DIGSA ([4]; 60 g/Ha): 70
Herbicidal activity on a 0-100 scale, DIGSA ([4]; 125 g/Ha): 70
Herbicidal activity on a 0-100 scale, DIGSA ([4]; 250 g/Ha): 80
Herbicidal activity on a 0-100 scale, DIGSA ([4]; 500 g/Ha): 90
Herbicidal activity SIDSP (Sida spinosa (SIDSP); 15 g/Ha): 90
Herbicidal activity SIDSP (Sida spinosa (SIDSP); 30 g/Ha): 90
Herbicidal activity SIDSP (Sida spinosa (SIDSP); 60 g/Ha): 100
Herbicidal activity SIDSP (Sida spinosa (SIDSP); 250 g/Ha): 100
Herbicidal activity SIDSP (Sida spinosa (SIDSP); 500 g/Ha): 100
Herbicidal activity on a 0-100 scale, SORVU (Sorghum bicolour (SORVU); 15 g/Ha): 0
Herbicidal activity on a 0-100 scale, SORVU (Sorghum bicolour (SORVU); 30 g/Ha): 70
Herbicidal activity on a 0-100 scale, SORVU (Sorghum bicolour (SORVU); 60 g/Ha): 80
Herbicidal activity on a 0-100 scale, SORVU (Sorghum bicolour (SORVU); 125 g/Ha): 90
Herbicidal activity on a 0-100 scale, SORVU (Sorghum bicolour (SORVU); 250 g/Ha): 90
Herbicidal activity on a 0-100 scale, SORVU (Sorghum bicolour (SORVU); 500 g/Ha): 100
Herbicidal activity on a 0-100 scale, ELEIN (Eleisine indica (ELEIN); 15 g/Ha): 0
Herbicidal activity on a 0-100 scale, ELEIN (Eleisine indica (ELEIN); 30 g/Ha): 70
Herbicidal activity on a 0-100 scale, ELEIN (Eleisine indica (ELEIN); 60 g/Ha): 70
Herbicidal activity on a 0-100 scale, ELEIN (Eleisine indica (ELEIN); 125 g/Ha): 80
Herbicidal activity on a 0-100 scale, ELEIN (Eleisine indica (ELEIN); 250 g/Ha): 80
Herbicidal activity on a 0-100 scale, ELEIN (Eleisine indica (ELEIN); 500 g/Ha): 90
Herbicidal activity XANST ([5]; 15 g/Ha): 80
Herbicidal activity XANST ([5]; 125 g/Ha): 90
Herbicidal activity XANST ([5]; 250 g/Ha): 100
Herbicidal activity XANST ([5]; 500 g/Ha): 100
Herbicidal activity POAAN (Poa annua (POAAN); 15 g/Ha): 20
Herbicidal activity POAAN (Poa annua (POAAN); 30 g/Ha): 70
Herbicidal activity POAAN (Poa annua (POAAN); 60 g/Ha): 80
Herbicidal activity POAAN (Poa annua (POAAN); 125 g/Ha): 90
Herbicidal activity POAAN (Poa annua (POAAN); 250 g/Ha): 90
Herbicidal activity POAAN (Poa annua (POAAN); 500 g/Ha): 90
Herbicidal activity on a 0-100 scale, SETFA (Setaria faberi (SETFA); 15 g/Ha): 40
Herbicidal activity on a 0-100 scale, SETFA (Setaria faberi (SETFA); 30 g/Ha): 80
Herbicidal activity on a 0-100 scale, SETFA (Setaria faberi (SETFA); 60 g/Ha): 90
Herbicidal activity on a 0-100 scale, SETFA (Setaria faberi (SETFA); 125 g/Ha): 90
Herbicidal activity on a 0-100 scale, SETFA (Setaria faberi (SETFA); 250 g/Ha): 90
Herbicidal activity on a 0-100 scale, SETFA (Setaria faberi (SETFA); 500 g/Ha): 100
Herbicidal activity AVEFA (Avena fatua (AVEFA); 15 g/Ha): 30
Herbicidal activity AVEFA (Avena fatua (AVEFA); 30 g/Ha): 60
Herbicidal activity AVEFA (Avena fatua (AVEFA); 60 g/Ha): 80
Herbicidal activity AVEFA (Avena fatua (AVEFA); 125 g/Ha): 80
Herbicidal activity AVEFA (Avena fatua (AVEFA); 250 g/Ha): 90
Herbicidal activity AVEFA (Avena fatua (AVEFA); 500 g/Ha): 90
Herbicidal activity on a 0-100 scale, BRAPL ([6]; 15 g/Ha): 80
Herbicidal activity on a 0-100 scale, BRAPL ([6]; 30 g/Ha): 80
Herbicidal activity on a 0-100 scale, BRAPL ([6]; 60 g/Ha): 90
Herbicidal activity on a 0-100 scale, BRAPL ([6]; 125 g/Ha): 90
Herbicidal activity on a 0-100 scale, BRAPL ([6]; 250 g/Ha): 90
Herbicidal activity on a 0-100 scale, BRAPL ([6]; 500 g/Ha): 90
Herbicidal activity BIDPI (Bidens pilosa (BIDPI); 15 g/Ha): 70
Herbicidal activity BIDPI (Bidens pilosa (BIDPI); 30 g/Ha): 70
Herbicidal activity BIDPI (Bidens pilosa (BIDPI); 60 g/Ha): 70
Herbicidal activity BIDPI (Bidens pilosa (BIDPI); 125 g/Ha): 70
Herbicidal activity BIDPI (Bidens pilosa (BIDPI); 250 g/Ha): 80
Herbicidal activity BIDPI (Bidens pilosa (BIDPI); 500 g/Ha): 90
